Experimental data: patent US4263427A, “Monensin urethane derivatives” (priority 1979, dated 1981)
In brackets after ≈: the same amount, converted by molar mass. Read-outs that look alike come from different tables or passages of the source.

Legend:
rumen fluid = conditions: control 100
Bacillus megaterium 8CU = experiment: Minimum Inhibitory Concentration, agarwell diffusion assay (Table 6); type: cell-based; conditions: for MIC: Priestia megaterium, 8CU, read-out: Minimum Inhibitory Concentration, Bacillus megaterium 8CU; for Minimum Inhibitory Concentration: Bacillus megaterium 8CU
Excerpt: (§1) (a) Lowest twofold dilution giving zone of inhibition in the agarwell
(§2) (b) NRRL collection number, all the rest ate ATCC numbers.

Bacillus sp. E 27859 = experiment: as above; type: cell-based; conditions: for MIC: Bacillus
Excerpt: as §1, §2

Bacillus sp. TA 27860 = experiment: as above; type: cell-based; conditions: for MIC: Bacillus
Excerpt: as §1, §2

Bacillus subtilis 583 = experiment: as above; type: cell-based
Excerpt: as §1, §2

Sarcina lutca 9341 = experiment: as above; type: cell-based; conditions: for MIC: Sarcina, 9341, read-out: Minimum Inhibitory Concentration, Sarcina lutca 9341
Excerpt: as §1, §2

Staph. aureus 6538 = experiment: as above; type: cell-based; conditions: for MIC: Staphylococcus aureus, 6538, read-out: Minimum Inhibitory Concentration, Staph. aureus 6538
Excerpt: as §1, §2

[1] = tested on: Streptococcus faecium 8043; experiment: as above; type: cell-based
Excerpt: as §1, §2

MycoBacterium phiel 355 = experiment: as above; type: cell-based; conditions: for MIC: Mycobacterium, 355, read-out: Minimum Inhibitory Concentration, MycoBacterium phiel 355
Excerpt: as §1, §2

[2] = tested on: Paceilomyces variotl 25820; experiment: as above; type: cell-based
Excerpt: as §1, §2

[3] = tested on: Streptococcus cellulosac 3313; experiment: as above; type: cell-based; conditions: for MIC: Streptococcus, 3313, read-out: Minimum Inhibitory Concentration, Streptococcus cellulosac 3313
Excerpt: as §1, §2

Treponema hyodysenteriae = experiment: Activity against Treponema hyodysenteriae (MIC, blood agar plates); type: cell-based; conditions: 42° C., anaerobic
Excerpt: Testing for activity against Treponema hyodysenteriae, a cause of swine dysentery consisted of inoculation of blood agar plates containing a series of two or fourfold dilutions of the monensin urethane derivatives with tenfold dilutions of the T. hyodysenteriae strain.

[4] = Oral antihypertensive activity: blood pressure and heart rate (Table 9); type: in vivo; conditions: oral dose 10 mg/kg
Excerpt: Compounds of formula I, and their pharmaceutically acceptable salts are orally active as antihypertensive agents.

[5] = SP.E27859, Bacillus sp. E 27859, read-out: Minimum Inhibitory Concentration
[6] = SP.TA27860, Bacillus sp. TA 27860, read-out: Minimum Inhibitory Concentration
[7] = Bacillus subtilis, 583, Bacillus subtilis 583 (NRRL), read-out: Minimum Inhibitory Concentration
[8] = Enterococcus faecium, 8043, Streptococcus faecium 8043, read-out: Minimum Inhibitory Concentration
[9] = Brachyspira hyodysenteriae, 48 h

Row | SMILES | Rate of Gas Production, Percent Production of Control Fermentations (rumen fluid; 50 ppm) [%] | Total VFA, Percent Production of Control Fermentations (rumen fluid; 50 ppm) [%] | MIC (Bacillus megaterium 8CU) [mg/L] | MIC (Bacillus sp. E 27859; [5]) [mg/L] | MIC (Bacillus sp. TA 27860; [6]) [mg/L] | MIC (Bacillus subtilis 583; [7]) [mg/L] | MIC (Sarcina lutca 9341) [mg/L] | MIC (Staph. aureus 6538) [mg/L] | MIC [1, 8] [mg/L] | MIC (MycoBacterium phiel 355) [mg/L] | MIC [3] [mg/L] | further results
1 | CC[C@@]1([C@@H]2O[C@@H]([C@H]3O[C@@](O)(CO)[C@H](C)C[C@@H]3C)C[C@@H]2C)CC[C@H]([C@]2(C)CC[C@]3(C[C@H](O)[C@@H](C)[C@@H]([C@@H](C)[C@@H](OC)[C@H](C)C(=O)O)O3)O2)O1 [Monensin] | 89 | 105.3 | – | – | – | – | – | – | – | – | – | Rate of Gas Production, Percent Production of Control Fermentations (rumen fluid; 10 ppm): 85%; Total VFA, Percent Production of Control Fermentations (rumen fluid; 10 ppm): 110.7%
2 | CCC1(C2OC(C3OC(O)(COC(=O)NC)C(C)CC3C)CC2C)CCC(C2(C)CCC3(CC(O)C(C)C(C(C)C(OC)C(C)C(=O)O)O3)O2)O1 (stereo not drawn) [Monensin A, n-methylurethane] | – | – | 6.3 (≈ 8.65 µM) | 6.3 (≈ 8.65 µM) | 12.5 (≈ 17.2 µM) | 1.6 (≈ 2.2 µM) | 25 (≈ 34.3 µM) | 25 (≈ 34.3 µM) | 1.6 (≈ 2.2 µM) | – | – | –
3 | COC(C(C)C(=O)O)C(C)C1OC2(CCC(C)(C3CCC(C)(C4OC(C5OC(O)(COC(=O)NC(C)c6ccccc6)C(C)CC5C)CC4C)O3)O2)CC(O)C1C [Monensin B, (S)-1-phenethylurethane] | – | – | – | – | – | – | – | – | – | – | – | Minimum Inhibitory Concentration (Bacillus megaterium 8CU; listed as Monensin B,(S)-1-phenethylurethane): 0.4 meg/ml; Minimum Inhibitory Concentration (Bacillus sp. E 27859; Bacillus sp. E 27859, listed as Monensin B,(S)-1-phenethylurethane): 0.1 meg/ml; Minimum Inhibitory Concentration (Bacillus sp. TA 27860; Bacillus sp. TA 27860, listed as Monensin B,(S)-1-phenethylurethane): 0.2 meg/ml; Minimum Inhibitory Concentration (Bacillus subtilis 583; Bacillus subtilis 583 (NRRL)): 0.8 meg/ml; Minimum Inhibitory Concentration (MycoBacterium phiel 355; MycoBacterium phiel 355): 6.3 meg/ml; Minimum Inhibitory Concentration ([2]; Paceilomyces variotl 25820, listed as Monensin B,(S)-1-phenethylurethane): 6.3 meg/ml; Minimum Inhibitory Concentration (Sarcina lutca 9341; Sarcina lutca 9341): 1.6 meg/ml; Minimum Inhibitory Concentration (Staph. aureus 6538; Staph. aureus 6538, listed as Monensin B,(S)-1-phenethylurethane): 1.6 meg/ml; Minimum Inhibitory Concentration ([3]; Streptococcus cellulosac 3313, listed as Monensin B,(S)-1-phenethylurethane): 6.3 meg/ml; Minimum Inhibitory Concentration ([1]; Streptococcus faecium 8043, listed as Monensin B,(S)-1-phenethylurethane): 0.2 meg/ml
4 | CCC1(C2OC(C3OC(O)(COC(=O)NC4CC4c4ccccc4)C(C)CC3C)CC2C)CCC(C2(C)CCC3(CC(O)C(C)C(C(C)C(OC)C(C)C(=O)O)O3)O2)O1 (stereo not drawn) [Monensin A, 2-(phenyl)-cyclopropyl urethane] | – | – | 0.8 (≈ 0.964 µM) | 0.4 (≈ 0.482 µM) | 0.4 (≈ 0.482 µM) | 0.8 (≈ 0.964 µM) | 0.8 (≈ 0.964 µM) | 3.1 (≈ 3.73 µM) | 0.2 (≈ 0.241 µM) | 3.1 (≈ 3.73 µM) | 12.5 (≈ 15.1 µM) | MIC ([2]; read-out: Minimum Inhibitory Concentration, Paceilomyces variotl 25820): 6.3 mg/L (≈ 7.59 µM); MIC (Treponema hyodysenteriae; [9]): 0.4 mg/L (≈ 0.482 µM)
5 | CCC1(C2OC(C3OC(O)(COC(=O)Nc4ccc(OC)cc4)C(C)CC3C)CC2C)CCC(C2(C)CCC3(CC(O)C(C)C(C(C)C(OC)C(C)C(=O)O)O3)O2)O1 (stereo not drawn) [Monensin A,4-methoxyphenylurethane] | – | – | 0.8 (≈ 0.976 µM) | – | – | – | 1.6 (≈ 1.95 µM) | 1.6 (≈ 1.95 µM) | – | 1.6 (≈ 1.95 µM) | 6.3 (≈ 7.68 µM) | MIC (Bacillus sp. E 27859; SP.E27859, read-out: Minimum Inhibitory Concentration, Bacillus sp. E 27859): 0.1 mg/L (≈ 0.122 µM); MIC (Bacillus sp. TA 27860; SP.TA27860, read-out: Minimum Inhibitory Concentration, Bacillus sp. TA 27860): 6.3 mg/L (≈ 7.68 µM); MIC (Bacillus subtilis 583; Bacillus subtilis, 583, read-out: Minimum Inhibitory Concentration, Bacillus subtilis 583 (NRRL)): 0.8 mg/L (≈ 0.976 µM); MIC ([1]; Enterococcus faecium, 8043, read-out: Minimum Inhibitory Concentration, Streptococcus faecium 8043): 0.4 mg/L (≈ 0.488 µM)
6 | COC(C(C)C(=O)O)C(C)C1OC2(CCC(C)(C3CCC(C)(C4OC(C5OC(O)(COC(=O)NCCc6ccccc6)C(C)CC5C)CC4C)O3)O2)CC(O)C1C (stereo not drawn) [Monensin B, 2-phenethylurethane] | 92 | 149.1 | 3.1 (≈ 3.86 µM) | 1.6 (≈ 1.99 µM) | 3.1 (≈ 3.86 µM) | 3.1 (≈ 3.86 µM) | 3.1 (≈ 3.86 µM) | 6.3 (≈ 7.84 µM) | 0.8 (≈ 0.995 µM) | 25 (≈ 31.1 µM) | 12.5 (≈ 15.5 µM) | MIC (Treponema hyodysenteriae; 48 hours, 2-phenethylurethane (natural product)): 0.4-2.0 meg/ml; MIC (Treponema hyodysenteriae; 48 hours, 2-phenethylurethane (synthetic product)): 2.0 meg/ml; Day of Maximum Change, Blood Pressure [4]: 2 days; Day of Maximum Change, Heart Rate [4]: 3 days; Maximum Change (%), Blood Pressure [4]: 13%; Maximum Change (%), Heart Rate [4]: 14%; Mean Blood Pressure at time of maximum effect ([4]; at time of maximum effect): 189 mm Hg; Mean Blood Pressure before treatment ([4]; before treatment): 216 mm Hg; Rate of Gas Production, Percent Production of Control Fermentations (rumen fluid; 10 ppm): 93%; Total VFA, Percent Production of Control Fermentations (rumen fluid; 10 ppm): 157.8%
7 | COC(C(C)C(=O)O)C(C)C1OC2(CCC(C)(C3CCC(C)(C4OC(C5OC(O)(COC(=O)NC(C)c6ccccc6)C(C)CC5C)CC4C)O3)O2)CC(O)C1C [Monensin B, (R)-1-phenethylurethane] | 103.3 | 82.7 | – | – | – | 1.6 (≈ 1.99 µM) | 3.1 (≈ 3.86 µM) | – | – | 12.5 (≈ 15.5 µM) | – | Minimum Inhibitory Concentration (Bacillus megaterium 8CU; listed as Monensin B,(R)-1-phenethylurethane): 1.6 meg/ml; Minimum Inhibitory Concentration (Bacillus sp. E 27859; Bacillus sp. E 27859, listed as Monensin B,(R)-1-phenethylurethane): 0.4 meg/ml; Minimum Inhibitory Concentration (Bacillus sp. TA 27860; Bacillus sp. TA 27860, listed as Monensin B,(R)-1-phenethylurethane): 1.6 meg/ml; Minimum Inhibitory Concentration ([2]; Paceilomyces variotl 25820, listed as Monensin B,(R)-1-phenethylurethane): 3.1 meg/ml; Minimum Inhibitory Concentration (Staph. aureus 6538; Staph. aureus 6538, listed as Monensin B,(R)-1-phenethylurethane): 6.3 meg/ml; Minimum Inhibitory Concentration ([3]; Streptococcus cellulosac 3313, listed as Monensin B,(R)-1-phenethylurethane): 3.1 meg/ml; Minimum Inhibitory Concentration ([1]; Streptococcus faecium 8043, listed as Monensin B,(R)-1-phenethylurethane): 0.8 meg/ml; MIC (Treponema hyodysenteriae; [9]): 0.4 mg/L (≈ 0.497 µM)
